Measured values taken from patent publication EP1954678B1, “NOVEL NK1 AND NK2 ANTAGONISTS” (Abbott Products GmbH, priority 2005, dated 2007).

How the values were obtained:
[1] = biological target: T1, human NK2 receptors (Homo sapiens, UniProt P21452); test: Binding of the test substances to NK2 receptors in vitro ([3H]-SR 48968 displacement, CHO cell membranes); conditions: [3H]-SR 48968 as ligand; membranes of CHO cells expressing the human NK2 receptor; 90 min incubation; Ki calculated from IC50; read-out: pKi (NK2) (converted)
T1 construct: expressed in transfected cells; host or cells: CHO cells (membrane preparation)
T1 sequence (P21452 1-398): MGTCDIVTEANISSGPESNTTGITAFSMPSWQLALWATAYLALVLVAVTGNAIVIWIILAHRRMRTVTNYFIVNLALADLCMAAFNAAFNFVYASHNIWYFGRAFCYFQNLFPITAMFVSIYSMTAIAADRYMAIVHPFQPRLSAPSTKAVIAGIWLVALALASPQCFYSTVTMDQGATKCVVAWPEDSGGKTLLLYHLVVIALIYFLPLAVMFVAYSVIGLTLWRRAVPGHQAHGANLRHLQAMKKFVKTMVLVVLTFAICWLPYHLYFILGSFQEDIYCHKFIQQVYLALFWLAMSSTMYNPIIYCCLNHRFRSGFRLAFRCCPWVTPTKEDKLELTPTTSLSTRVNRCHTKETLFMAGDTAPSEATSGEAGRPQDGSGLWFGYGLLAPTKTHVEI
Method: The affinity of the test substances to human NK2 receptors was measured in vitro. The ability of the test substances to displace the selective NK2 receptor antagonist SR 48968 (= saredutant) used as reference ligand from its corresponding bond was determined.
The receptor binding studies were carried out with radioactively marked [^3H]-SR 48968 (from Amersham) as ligand. For the binding test, different samples of a membrane preparation of CHO cells (= egg cells of the Chinese hamster, Chinese hamster oocytes), which express the human NK2 receptor (for preparation, see N.P. Gerard et al., Journal of Biological Chemistry 265/33 (1990) 20455-20462), were incubated for 90 minutes (= min.) with a solution of the marked ligand, with the incubation mixtures containing no test substance or additions of different concentrations of test substance. Then in each case the membrane-bound ligands in the samples were separated from free ligands by filtration. The fraction remaining in the filter was washed several times with buffer solution, before its radioactivity was measured using a liquid scintillation counter. That concentration which effects half-maximum displacement of the bound reference ligand was determined as IC50 of the respective test substance. The inhibition constant (Ki value) of the test substance was calculated from the respective IC50 value, and was stated as the negative logarithmised value thereof (pKi).
If several measurements were performed, the average thereof was listed each time. The pKi value is a measurement of the affinity of the test substances to human NK2 receptors.

[2] = biological target: T2, cloned human NK1 receptors (Homo sapiens, UniProt P25103); test: Ca2+ measurements using FLIPR for NK1 activity in CHO cells; format: cell-based; conditions: substance P 10^-8 M as agonist; compound applied 7 min before; pA2 calculated from IC50
T2 construct: expressed in transfected cells
From the text: (§1) The NK receptor is coupled to Gq.
(§2) All steps were done under sterile conditions. […] The results are summarized in table 5: Table 5: pA2 data for NK1 and NK2: […]

[3] = biological target: T3, cloned human NK2 receptors (Homo sapiens, UniProt P21452); test: Ca2+ measurements using FLIPR for NK2 activity in CHO cells; format: cell-based; conditions: NKA 10^-7 M as agonist; compound applied 7 min before; pA2 calculated from IC50
T3 construct: expressed in transfected cells
T3 sequence (P21452 1-398): T1 sequence (P21452 1-398)
From the text: as §1, §2

[4] = biological target: T4, NK2 receptors (Cavia porcellus, UniProt Q64077); test: Functional NK2 antagonism on isolated guinea pig gall-bladder preparations (NKA induced contraction); set-up: from tissue; host or cells: guinea pig gall-bladder preparations; species or system Pirbright-White guinea pigs
T4 sequence (Q64077 1-402): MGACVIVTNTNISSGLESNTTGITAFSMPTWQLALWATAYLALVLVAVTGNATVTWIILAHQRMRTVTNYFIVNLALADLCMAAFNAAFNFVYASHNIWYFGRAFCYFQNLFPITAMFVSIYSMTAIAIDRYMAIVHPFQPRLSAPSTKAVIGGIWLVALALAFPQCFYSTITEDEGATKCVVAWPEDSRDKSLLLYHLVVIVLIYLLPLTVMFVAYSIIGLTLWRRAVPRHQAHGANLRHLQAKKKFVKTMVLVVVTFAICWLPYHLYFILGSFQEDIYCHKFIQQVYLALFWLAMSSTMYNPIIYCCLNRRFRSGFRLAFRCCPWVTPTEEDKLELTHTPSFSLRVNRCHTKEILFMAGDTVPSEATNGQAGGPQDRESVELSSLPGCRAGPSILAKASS
Method: The NK2 receptor-antagonising action of the test substances was determined on isolated gall-bladder preparations from Pirbright-White guinea pigs, held in an oxygen-saturated nutrient solution. To this end, the preparations were fastened on one hand in the nutrient solution to organ holders and on the other hand on a force meter by a thread.
The concentration of the test substances was increased iteratively in the subsequent experiments as a function of the result in logarithmic whole or half steps, until at least one concentration above or below 50% inhibition of contraction was determined (up to at most 10^-5 mol/l). For each concentration, the average value of inhibition of contraction was calculated from 2 to 4 preparations. In each case, the concentration of half-maximum inhibition (IC50) per test substance was calculated as characteristic variable.

T2 sequence (P25103 whole entry): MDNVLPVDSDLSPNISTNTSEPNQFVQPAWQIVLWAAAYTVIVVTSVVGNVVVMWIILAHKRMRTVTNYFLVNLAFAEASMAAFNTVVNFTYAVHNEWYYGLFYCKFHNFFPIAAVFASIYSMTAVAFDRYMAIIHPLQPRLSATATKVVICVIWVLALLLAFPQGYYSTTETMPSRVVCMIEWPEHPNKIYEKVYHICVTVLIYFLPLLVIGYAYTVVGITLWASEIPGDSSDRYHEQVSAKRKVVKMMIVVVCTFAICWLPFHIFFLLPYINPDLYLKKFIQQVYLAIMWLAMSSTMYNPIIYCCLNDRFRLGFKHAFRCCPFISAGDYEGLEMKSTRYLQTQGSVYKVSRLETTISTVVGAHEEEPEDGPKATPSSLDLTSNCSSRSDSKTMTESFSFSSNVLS

| Ki [1] [µM] | Kb [2] [µM] | Kb [3] [µM] | IC50 [4] [µM] | SMILES |
| --- | --- | --- | --- | --- |
| 0.00794 | 0.00126 | 0.01 | 0.002 | CN(C[C@@H](CCN1CCN([C@@H](c2ccco2)[C@H](O)CO)CC1)c1ccc(Cl)c(Cl)c1)C(=O)c1cc(C#N)cc2ccccc12 [Compound 1, 3-cyano-N-[(2S)-2-(3,4-dichlorophenyl)-4-{4-[(1R,2S)-1-(2-furyl)-2,3-dihydroxypropyl]piperazin-1-yl}butyl]-N-methyl-1-naphthamide] |
| 0.0794 | – | – | 0.02 | CN(C[C@@H](CCN1CCN([C@@H](c2ccco2)[C@H](O)[C@@H](O)[C@H](O)CO)CC1)c1ccc(Cl)c(Cl)c1)C(=O)c1cc(C#N)cc2ccccc12 [Compound 2, 3-cyano-N-[(2S)-2-(3,4-dichlorophenyl)-4-{4-[(1R,2S,3R,4R)-1-(2-furyl)-2,3,4,5-tetrahydroxypentyl]piperazin-1-yl}butyl]-N-methyl-1-naphthamide] |
| 0.0398 | – | – | 0.0398 | CN(C[C@@H](CCN1CCN(C(CO)(CO)c2ccco2)CC1)c1ccc(Cl)c(Cl)c1)C(=O)c1cc(C#N)cc2ccccc12 [Compound 6, 3-cyano-N-[(2S)-2-(3,4-dichlorophenyl)-4-{4-[1-(2-furyl)-2-hydroxy-1-(hydroxymethyl)ethyl]piperazin-1-yl}butyl]-N-methyl-1-naphthamide] |
| 0.0251 | – | – | 0.0158 | CN(C[C@@H](CCN1CCN([C@@H](c2ccco2)[C@H]2COC(=O)O2)CC1)c1ccc(Cl)c(Cl)c1)C(=O)c1cc(C#N)cc2ccccc12 [Compound 11, 3-cya no-N-[(2S)-2-(3,4-dichlorophenyl)-4-(4-{(R)-2-furyl[(4S)-2-oxo-1,3-dioxolan-4-yl]methyl}piperazin-1-yl)butyl]-N-methyl-1-naphthamide] |
